US20250114345A1, “COMPOUNDS AND COMPOSITIONS AS CBP/P300 DEGRADERS AND USES THEREOF” (Oncopia Therapeutics, Inc. d/b/a/ SK Life Science Labs, priority 2023, published 2025)

What was measured:
p300 = biological target: T1, p300 (Homo sapiens, UniProt Q09472); experiment: P300 degradation, HiBit technology in A549 P300 HiBit cells (2 h); assay type: cell-based; conditions: 2 hrs post treatment; for Dmax: A549, A549 P300 HiBit cells; for DC50: A549 P300 HiBit cells
T1 construct: host or cells: A549 P300 HiBit cells
Procedure, shortened: (§1)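 A549 HiBiT knock-in cells seeded overnight at 37 °C, 5% CO2 in F-12K with 10% heat-inactivated FBS, then given serial dilutions of compound from 10 mM DMSO stocks. Lytic HiBiT detection reagent added for 10 min at room temperature; luminescence read. Potency and Dmax reported.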

CBP = biological target: T2, CBP (Homo sapiens, UniProt Q92793); experiment: CBP degradation, HiBit technology in A549 CBP HiBit cells (24 h); assay type: cell-based; conditions: 24 hrs post treatment
T2 construct: host or cells: A549 CBP HiBit cells
Procedure, shortened: as §1

T1 sequence (Q09472 whole entry): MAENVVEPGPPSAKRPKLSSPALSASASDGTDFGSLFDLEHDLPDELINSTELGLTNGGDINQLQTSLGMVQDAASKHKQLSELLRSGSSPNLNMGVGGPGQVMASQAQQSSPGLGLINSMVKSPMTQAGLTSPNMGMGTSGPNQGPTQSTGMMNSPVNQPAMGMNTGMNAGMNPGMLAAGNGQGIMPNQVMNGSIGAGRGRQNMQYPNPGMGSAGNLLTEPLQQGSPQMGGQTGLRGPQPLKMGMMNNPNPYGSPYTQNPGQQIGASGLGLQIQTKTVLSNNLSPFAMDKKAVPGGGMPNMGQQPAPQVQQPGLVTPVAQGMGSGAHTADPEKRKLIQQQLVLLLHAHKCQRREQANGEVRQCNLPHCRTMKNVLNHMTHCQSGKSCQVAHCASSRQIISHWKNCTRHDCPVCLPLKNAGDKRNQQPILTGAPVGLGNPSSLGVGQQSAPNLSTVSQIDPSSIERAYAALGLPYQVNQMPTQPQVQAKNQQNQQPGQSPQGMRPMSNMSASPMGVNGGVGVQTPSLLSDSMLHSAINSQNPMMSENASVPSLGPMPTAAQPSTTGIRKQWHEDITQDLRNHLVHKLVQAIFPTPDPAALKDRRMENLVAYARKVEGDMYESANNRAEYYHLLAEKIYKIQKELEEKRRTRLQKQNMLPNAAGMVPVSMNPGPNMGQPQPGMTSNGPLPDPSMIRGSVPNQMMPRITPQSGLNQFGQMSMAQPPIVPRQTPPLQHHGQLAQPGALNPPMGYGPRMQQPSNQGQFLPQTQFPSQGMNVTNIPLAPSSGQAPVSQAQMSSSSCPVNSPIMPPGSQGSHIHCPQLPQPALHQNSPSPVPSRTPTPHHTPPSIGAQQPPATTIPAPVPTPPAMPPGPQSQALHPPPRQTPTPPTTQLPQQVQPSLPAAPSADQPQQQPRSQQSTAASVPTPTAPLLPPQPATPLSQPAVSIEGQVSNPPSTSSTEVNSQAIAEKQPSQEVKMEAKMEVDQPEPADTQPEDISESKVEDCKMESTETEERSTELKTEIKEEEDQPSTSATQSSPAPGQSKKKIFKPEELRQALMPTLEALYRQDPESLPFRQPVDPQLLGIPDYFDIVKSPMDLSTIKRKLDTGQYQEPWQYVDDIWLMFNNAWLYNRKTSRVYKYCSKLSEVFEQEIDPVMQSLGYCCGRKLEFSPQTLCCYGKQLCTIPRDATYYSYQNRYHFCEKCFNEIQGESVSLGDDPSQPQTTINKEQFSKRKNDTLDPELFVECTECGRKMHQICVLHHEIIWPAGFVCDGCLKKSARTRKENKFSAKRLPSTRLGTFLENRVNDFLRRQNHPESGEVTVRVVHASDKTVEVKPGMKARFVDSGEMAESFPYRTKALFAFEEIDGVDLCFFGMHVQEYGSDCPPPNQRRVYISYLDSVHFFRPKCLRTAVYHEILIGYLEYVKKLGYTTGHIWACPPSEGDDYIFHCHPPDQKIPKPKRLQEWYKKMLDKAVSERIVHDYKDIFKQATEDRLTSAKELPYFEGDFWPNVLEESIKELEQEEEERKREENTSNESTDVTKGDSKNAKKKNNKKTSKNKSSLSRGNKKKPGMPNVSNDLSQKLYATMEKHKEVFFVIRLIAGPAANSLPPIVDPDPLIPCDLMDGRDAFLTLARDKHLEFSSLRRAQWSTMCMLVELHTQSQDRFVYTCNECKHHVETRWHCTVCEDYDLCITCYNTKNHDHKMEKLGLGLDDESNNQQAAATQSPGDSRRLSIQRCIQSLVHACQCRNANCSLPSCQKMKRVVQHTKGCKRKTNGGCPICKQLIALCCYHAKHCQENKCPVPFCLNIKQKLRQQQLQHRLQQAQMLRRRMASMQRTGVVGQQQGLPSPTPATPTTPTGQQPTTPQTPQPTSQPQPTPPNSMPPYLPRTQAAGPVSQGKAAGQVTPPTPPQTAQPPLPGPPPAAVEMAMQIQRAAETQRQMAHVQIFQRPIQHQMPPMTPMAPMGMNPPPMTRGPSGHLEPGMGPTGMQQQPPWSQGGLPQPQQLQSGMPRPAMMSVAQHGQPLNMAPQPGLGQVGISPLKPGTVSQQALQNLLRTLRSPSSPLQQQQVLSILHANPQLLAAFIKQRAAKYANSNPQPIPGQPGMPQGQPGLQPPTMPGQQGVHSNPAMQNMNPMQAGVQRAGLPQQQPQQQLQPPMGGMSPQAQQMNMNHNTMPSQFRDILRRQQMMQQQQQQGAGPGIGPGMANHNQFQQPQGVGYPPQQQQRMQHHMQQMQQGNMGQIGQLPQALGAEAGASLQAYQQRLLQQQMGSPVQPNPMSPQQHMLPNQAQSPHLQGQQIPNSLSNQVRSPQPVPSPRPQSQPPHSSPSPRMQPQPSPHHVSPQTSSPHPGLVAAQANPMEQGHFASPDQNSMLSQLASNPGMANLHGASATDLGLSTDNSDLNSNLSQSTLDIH
T2 sequence (Q92793 whole entry): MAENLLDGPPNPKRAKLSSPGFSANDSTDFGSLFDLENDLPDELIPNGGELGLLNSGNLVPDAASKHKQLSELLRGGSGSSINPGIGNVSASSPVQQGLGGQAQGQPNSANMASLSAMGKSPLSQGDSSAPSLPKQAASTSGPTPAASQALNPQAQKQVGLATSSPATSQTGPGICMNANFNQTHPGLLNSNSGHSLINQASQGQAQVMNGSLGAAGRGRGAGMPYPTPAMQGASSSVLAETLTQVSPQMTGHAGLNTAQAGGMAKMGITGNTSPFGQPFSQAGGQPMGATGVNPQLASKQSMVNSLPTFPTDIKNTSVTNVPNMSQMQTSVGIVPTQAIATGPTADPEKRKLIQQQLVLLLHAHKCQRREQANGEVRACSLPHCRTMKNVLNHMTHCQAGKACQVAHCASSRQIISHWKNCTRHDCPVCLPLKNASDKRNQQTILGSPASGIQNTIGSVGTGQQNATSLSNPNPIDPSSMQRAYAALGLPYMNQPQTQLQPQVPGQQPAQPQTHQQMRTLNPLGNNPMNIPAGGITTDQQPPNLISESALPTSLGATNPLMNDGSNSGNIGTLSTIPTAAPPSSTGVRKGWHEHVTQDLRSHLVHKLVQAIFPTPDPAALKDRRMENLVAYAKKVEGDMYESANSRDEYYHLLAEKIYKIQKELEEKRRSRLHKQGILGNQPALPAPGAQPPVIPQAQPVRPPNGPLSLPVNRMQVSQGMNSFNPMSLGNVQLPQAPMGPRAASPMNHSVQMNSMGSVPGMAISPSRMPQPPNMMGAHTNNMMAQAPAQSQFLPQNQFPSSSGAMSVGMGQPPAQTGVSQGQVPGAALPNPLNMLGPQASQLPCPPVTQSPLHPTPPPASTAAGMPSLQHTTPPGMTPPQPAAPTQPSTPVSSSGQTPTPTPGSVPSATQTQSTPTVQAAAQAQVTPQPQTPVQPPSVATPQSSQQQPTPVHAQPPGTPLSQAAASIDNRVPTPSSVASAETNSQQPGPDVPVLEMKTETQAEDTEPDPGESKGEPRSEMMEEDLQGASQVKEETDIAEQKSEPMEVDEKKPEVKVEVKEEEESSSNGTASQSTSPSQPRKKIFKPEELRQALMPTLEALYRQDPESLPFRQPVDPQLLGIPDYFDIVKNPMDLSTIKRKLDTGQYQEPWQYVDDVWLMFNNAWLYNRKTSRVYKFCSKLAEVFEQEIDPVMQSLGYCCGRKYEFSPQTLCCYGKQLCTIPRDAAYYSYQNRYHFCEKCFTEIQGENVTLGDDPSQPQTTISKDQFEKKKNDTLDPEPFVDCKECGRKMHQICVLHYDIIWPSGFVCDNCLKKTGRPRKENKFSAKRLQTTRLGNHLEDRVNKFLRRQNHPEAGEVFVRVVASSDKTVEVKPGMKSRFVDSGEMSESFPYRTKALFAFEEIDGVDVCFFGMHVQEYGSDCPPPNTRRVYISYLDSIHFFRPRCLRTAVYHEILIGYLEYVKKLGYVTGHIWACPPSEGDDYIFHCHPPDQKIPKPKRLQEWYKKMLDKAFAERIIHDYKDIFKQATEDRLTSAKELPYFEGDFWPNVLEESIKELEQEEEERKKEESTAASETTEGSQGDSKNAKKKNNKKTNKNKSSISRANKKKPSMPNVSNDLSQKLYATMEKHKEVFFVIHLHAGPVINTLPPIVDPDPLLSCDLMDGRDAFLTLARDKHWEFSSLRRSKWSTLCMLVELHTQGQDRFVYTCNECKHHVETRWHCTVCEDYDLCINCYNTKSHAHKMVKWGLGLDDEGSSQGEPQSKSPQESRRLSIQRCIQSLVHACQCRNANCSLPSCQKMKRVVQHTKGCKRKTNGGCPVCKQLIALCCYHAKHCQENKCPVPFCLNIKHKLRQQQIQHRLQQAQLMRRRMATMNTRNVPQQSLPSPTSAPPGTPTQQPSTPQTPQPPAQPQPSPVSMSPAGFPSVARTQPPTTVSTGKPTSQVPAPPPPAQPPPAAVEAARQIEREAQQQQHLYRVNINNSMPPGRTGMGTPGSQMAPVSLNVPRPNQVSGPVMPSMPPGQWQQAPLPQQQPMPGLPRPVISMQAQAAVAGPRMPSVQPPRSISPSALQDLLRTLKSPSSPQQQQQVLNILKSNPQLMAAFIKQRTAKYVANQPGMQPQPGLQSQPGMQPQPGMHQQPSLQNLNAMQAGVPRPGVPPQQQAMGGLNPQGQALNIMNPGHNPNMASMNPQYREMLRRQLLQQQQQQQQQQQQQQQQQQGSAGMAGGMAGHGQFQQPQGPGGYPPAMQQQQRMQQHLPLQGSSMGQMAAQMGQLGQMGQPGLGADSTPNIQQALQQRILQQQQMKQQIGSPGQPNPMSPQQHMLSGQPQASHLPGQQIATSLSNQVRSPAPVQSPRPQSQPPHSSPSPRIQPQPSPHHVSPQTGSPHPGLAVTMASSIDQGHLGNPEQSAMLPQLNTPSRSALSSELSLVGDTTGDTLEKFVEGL

Row | SMILES | Dmax (p300) | DC50 (p300) | DC50 (CBP) | Dmax (CBP)
1 | Cn1c(=O)n(C)c2c(N3CC(O)C3)nc(-c3cccc4cc(-c5ccc(C(=O)NCC#Cc6ccc7occ(C8CCC(=O)NC8=O)c7c6)nc5)ncc34)cc21 (centres unmarked) [Example A115, N-(3-(3-(2,6-dioxo-piperidin-3-yl)benzofuran-5-yl)prop-2-yn-1-yl)-5-(8-(4-(3-hydroxyazetidin-1-yl)-1,3-dimethyl-2-oxo-2,3-dihydro-1H-imidazo[4,5-c]pyridin-6-yl)isoquinolin-3-yl)picolinamide] | > 80% | < 1 nM | > 1000 nM | < 20%
2 | CC(C)c1cc(-c2cccc3cc(-c4ccc(C(=O)NCC#Cc5ccc6c(c5)n(C5CCC(=O)NC5=O)c(=O)n6C)nc4)ncc23)cc2c1n(C)c(=O)n2C (centres unmarked) [Example A18, N-(3-(3-(2,6-Dioxopiperidin-3-yl)-1-methyl-2-oxo-2,3-dihydro-1H-benzo[d]imidazol-5-yl)prop-2-yn-1-yl)-5-(8-(7-isopropyl-1,3-dimethyl-2-oxo-2,3-dihydro-1H-benzo[d]imidazol-5-yl)isoquinolin-3-yl)picolinamide] | > 80% | 1 to 9.9 nM | 10 to 99 nM | 60 to 79%
3 | CC(C)c1cc(C2=CC(C)(C)Oc3cc(-c4ccc(C(=O)NCC#Cc5ccc6occ(C7CCC(=O)NC7=O)c6c5)nc4)c(F)cc32)cc2c1n(C)c(=O)n2C (centres unmarked) [Example A57, N-(3-(3-(2,6-dioxopiperidin-3-yl)benzofuran-5-yl)prop-2-yn-1-yl)-5-(6-fluoro-4-(7-isopropyl-1,3-dimethyl-2-oxo-2,3-dihydro-1H-benzo[d]imidazol-5-yl)-2,2-dimethyl-2H-chromen-7-yl)picolinamide] | > 80% | 10 to 99 nM | > 1000 nM | < 20%
4 | Cc1cc2c(N3CCOc4cc(-c5ccc(C(=O)NCC#Cc6ccc7occ(C8CCC(=O)NC8=O)c7c6)nc5)c(F)cc43)cc(N3CC4(COC4)C3)cc2n(C)c1=O (centres unmarked) [Example B58, 5-(4-(1,3-dimethyl-2-oxo-7-(2-oxa-6-azaspiro[3.3]heptan-6-yl)-1,2-dihydro-quinolin-5-yl)-6-fluoro-3,4-dihydro-2H-benzo[b][1,4]oxazin-7-yl)-N-(3-(3-(2,6-dioxopiperidin-3-yl)benzofuran-5-yl)prop-2-yn-1-yl)picolinamide] | > 80% | 1 to 9.9 nM | > 1000 nM | < 20%
5 | Cc1cc(-c2cc3c(cn2)N(c2cccc4c2cc(C)c(=O)n4C)CCO3)cnc1C(=O)NCC#Cc1ccc2occ(C3CCC(=O)NC3=O)c2c1 (centres unmarked) [Example B83, 5-(4-(1,3-dimethyl-2-oxo-1,2-dihydroquinolin-5-yl)-3,4-dihydro-2H-pyrido[4,3-b][1,4]oxazin-7-yl)-N-(3-(3-(2,6-dioxopiperidin-3-yl)benzofuran-5-yl)prop-2-yn-1-yl)-3-methylpicolinamide] | > 80% | 1 to 9.9 nM | 100 to 999 nM | 40 to 59%
6 | Cn1c(=O)n(C)c2cc(C3=CC(C)(C)Oc4cc(-c5ccc(C(=O)NCC#Cc6ccc7occ(C8CCC(=O)NC8=O)c7c6)nc5)ncc43)ccc21 (centres unmarked) [Example A263, 5-(4-(1,3-dimethyl-2-oxo-2,3-dihydro-1H-benzo[d]imidazol-5-yl)-2,2-dimethyl-2H-pyrano[3,2-c]pyridin-7-yl)-N-(3-(3-(2,6-dioxopiperidin-3-yl)benzofuran-5-yl)prop-2-yn-1-yl)picolinamide] | > 80% | 1 to 9.9 nM | > 1000 nM | < 20%
7 | Cc1cc2c(-c3cccc4cc(-c5ccc(C(=O)NCC#Cc6cc7c(C8CCC(=O)NC8=O)cccc7o6)nc5)ncc34)nc(N3CCOCC3)cc2n(C)c1=O (centres unmarked) [Example B74, 5-(8-(1,3-dimethyl-7-morpholino-2-oxo-1,2-dihydro-1,6-naphthyridin-5-yl)isoquinolin-3-yl)-N-(3-(4-(2,6-dioxopiperidin-3-yl)benzofuran-2-yl)prop-2-yn-1-yl)picolinamide] | > 80% | 1 to 9.9 nM | > 1000 nM | < 20%
8 | CC(C)c1cc(-c2cccc3cc(-c4ccc(C(=O)NCC#Cc5cc6cccc(C7CCC(=O)NC7=O)c6o5)nc4)ncc23)cc2c1n(C)c(=O)n2C (centres unmarked) [Example A216, N-(3-(7-(2,6-dioxo-piperidin-3-yl)benzofuran-2-yl)prop-2-yn-1-yl)-5-(8-(7-isopropyl-1,3-dimethyl-2-oxo-2,3-dihydro-1H-benzo [d]imidazol-5-yl)isoquinolin-3-yl)picolinamide] | > 80% | 1 to 9.9 nM | > 1000 nM | < 20%
9 | Cc1cc2c(N3CCCc4nc(-c5ccc(C(=O)NCC#Cc6ccc7occ(C8CCC(=O)NC8=O)c7c6)nc5)ncc43)nc(N3CC(F)C3)cc2n(C)c1=O (centres unmarked) [Example B68, N-(3-(3-(2,6-dioxopiperidin-3-yl)benzofuran-5-yl)prop-2-yn-1-yl)-5-(5-(7-(3-fluoroazetidin-1-yl)-1,3-dimethyl-2-oxo-1,2-dihydro-1,6-naphthyridin-5-yl)-5,6,7,8-tetrahydropyrido [3,2-d]pyrimidin-2-yl)picolinamide] | 60 to 79% | 1 to 9.9 nM | > 1000 nM | < 20%
10 | COc1nc(-c2cnc(C(=O)NCC#Cc3cc4c(C5CCC(=O)NC5=O)cccc4o3)c(C)c2)ncc1Nc1cc(C2CCOCC2)cc2c1cc(C)c(=O)n2C (centres unmarked) [Example B20, 5-(5-((1,3-dimethyl-2-oxo-7-(tetrahydro-2H-pyran-4-yl)-1,2-dihydroquinolin-5-yl)amino)-4-methoxypyrimidin-2-yl)-N-(3-(4-(2,6-dioxopiperidin-3-yl)benzofuran-2-yl)prop-2-yn-1-yl)-3-methylpicolinamide] | > 80% | 1 to 9.9 nM | > 1000 nM | < 20%
11 | Cc1cc2c(N3CCCc4nc(-c5ccc(C(=O)NCC#Cc6ccc7occ([C@@H]8CCC(=O)NC8=O)c7c6)nc5)ncc43)cc(C3CCOCC3)cc2n(C)c1=O [Example B55, (S)-5-(5-(1,3-dimethyl-2-oxo-7-(tetrahydro-2H-pyran-4-yl)-1,2-dihydroquinolin-5-yl)-5,6,7,8-tetrahydropyrido[3,2-d]pyrimidin-2-yl)-N-(3-(3-(2,6-dioxopiperidin-3-yl)benzofuran-5-yl)prop-2-yn-1-yl)picolinamide] | > 80% | 1 to 9.9 nM | > 1000 nM | < 20%
12 | Cc1cc2c(N3CCOc4cc(-c5ccc(C(=O)NCC#Cc6ccc7occ(C8CCC(=O)NC8=O)c7c6)nc5)ncc43)cccc2n(C)c1=O (centres unmarked) [Example B77, 5-(4-(1,3-dimethyl-2-oxo-1,2-dihydroquinolin-5-yl)-3,4-dihydro-2H-pyrido[4,3-b][1,4]oxazin-7-yl)-N-(3-(3-(2,6-dioxopiperidin-3-yl)benzofuran-5-yl)prop-2-yn-1-yl)picolinamide] | > 80% | 1 to 9.9 nM | > 1000 nM | < 20%
13 | Cc1cc2c(N3CCCc4nc(-c5ccc(C(=O)NCC#Cc6cc7c(C8CCC(=O)NC8=O)cccc7o6)nc5)ncc43)nc(N3CC(C)(O)C3)cc2n(C)c1=O (centres unmarked) [Example B168, N-(3-(4-(2,6-dioxopiperidin-3-yl)benzofuran-2-yl)prop-2-yn-1-yl)-5-(5-(7-(3-hydroxy-3-methylazetidin-1-yl)-1,3-dimethyl-2-oxo-1,2-dihydro-1,6-naphthyridin-5-yl)-5,6,7,8-tetrahydropyrido[3,2-d]pyrimidin-2-yl) picolinamide] | > 80% | < 1 nM | > 1000 nM | < 20%
14 | Cn1c(=O)n(C)c2cc(-c3cccc4cc(-c5ccc(C(=O)NCC#Cc6cc7c([C@H]8CCC(=O)NC8=O)cccc7o6)nc5)ncc34)ccc21 [Example A170, (R)-5-(8-(1,3-dimethyl-2-oxo-2,3-dihydro-1H-benzo[d]imidazol-5-yl)isoquinolin-3-yl)-N-(3-(4-(2,6-dioxo-piperidin-3-yl)benzofuran-2-yl)prop-2-yn-1-yl)picolinamide] | > 80% | < 1 nM | > 1000 nM | < 20%
15 | CC(C)c1cc(-c2cccc3cc(-c4ccc(C(=O)NCC#Cc5ccc6cnn(C7CCC(=O)NC7=O)c6c5)nc4)ncc23)cc2c1n(C)c(=O)n2C (centres unmarked) [Example A11, N-(3-(1-(2,6-Dioxopiperidin-3-yl)-1H-indazol-6-yl)prop-2-yn-1-yl)-5-(8-(7-isopropyl-1,3-dimethyl-2-oxo-2,3-dihydro-1H-benzo[d]imidazol-5-yl)isoquinolin-3-yl)picolinamide] | > 80% | 1 to 9.9 nM | 10 to 99 nM | 20 to 39%
16 | Cc1cc(-c2cc3cccc(-c4cnc5c(c4)n(C)c(=O)n5C)c3cn2)cnc1C(=O)NCC#Cc1cc2c(C3CCC(=O)NC3=O)cccc2o1 (centres unmarked) [Example A189, 5-(8-(1,3-dimethyl-2-oxo-2,3-dihydro-1H-imidazo[4,5-b]pyridin-6-yl)isoquinolin-3-yl)-N-(3-(4-(2,6-dioxopiperidin-3-yl)benzofuran-2-yl)prop-2-yn-1-yl)-3-methylpicolinamide] | > 80% | 1 to 9.9 nM | > 1000 nM | < 20%
17 | Cc1cc(-c2cccc3cc(-c4ccc(C(=O)NCC#Cc5ccc6occ(C7CCC(=O)NC7=O)c6c5)nc4)ncc23)cc2c1n(C)c(=O)n2C (centres unmarked) [Example A96, N-(3-(3-(2,6-dioxo-piperidin-3-yl)benzofuran-5-yl)prop-2-yn-1-yl)-5-(8-(1,3,7-trimethyl-2-oxo-2,3-dihydro-1H-benzo[d]imidazol-5-yl)isoquinolin-3-yl)picolinamide] | > 80% | 1 to 9.9 nM | > 1000 nM | < 20%
